Assay results taken from paper PMC4840272 (Neoplasia (New York, N.Y.), 2016).
Where “and” joins values, the source holds several entries; their conditions need not be identical. Equal entries are not always repeated.

Legend:
H1650 cells = assay: cells; type: cell-based, human; details: Homo sapiens, NCI-H1650, 72 h
H1650-Luc cells = assay: orthotopic lung tumor model, IVIS; type: in vivo, nude mice; details: BO-1978 40 mg/kg, gefitinib 10 mg/kg, daily for 5 consecutive days
PC9 cells = assay: cells; type: cell-based, human; details: Homo sapiens, PC-9, 72 h
pEGFP-N1 plasmid DNA = assay: alkaline gel shift assay of DNA cross-linking; type: biochemical; details: 0.125 to 2 μM, 2 hours, 37°C
[1] = complete blood count and blood chemistry test in ICR mice; type: in vivo; details: 40 mg/kg i.v.
[2] = tissue distribution in SD rats; type: in vivo; details: 30 minutes after administration, 10 mg/kg, n = 6
11 NSCLC cell lines = assay: cytotoxicity against batch of 11 NSCLC cell lines; type: cell-based; details: Homo sapiens, read-out: IC50 values against NSCLC cells (range)
topo I = topo I (Homo sapiens, UniProt P11387); assay: topo I activity assay with nuclear extracts of treated H460 cells; type: cell-based; details: H460 cells treated 72 hours, nuclear extract, plasmid relaxation
topo I, sequence (P11387 whole entry): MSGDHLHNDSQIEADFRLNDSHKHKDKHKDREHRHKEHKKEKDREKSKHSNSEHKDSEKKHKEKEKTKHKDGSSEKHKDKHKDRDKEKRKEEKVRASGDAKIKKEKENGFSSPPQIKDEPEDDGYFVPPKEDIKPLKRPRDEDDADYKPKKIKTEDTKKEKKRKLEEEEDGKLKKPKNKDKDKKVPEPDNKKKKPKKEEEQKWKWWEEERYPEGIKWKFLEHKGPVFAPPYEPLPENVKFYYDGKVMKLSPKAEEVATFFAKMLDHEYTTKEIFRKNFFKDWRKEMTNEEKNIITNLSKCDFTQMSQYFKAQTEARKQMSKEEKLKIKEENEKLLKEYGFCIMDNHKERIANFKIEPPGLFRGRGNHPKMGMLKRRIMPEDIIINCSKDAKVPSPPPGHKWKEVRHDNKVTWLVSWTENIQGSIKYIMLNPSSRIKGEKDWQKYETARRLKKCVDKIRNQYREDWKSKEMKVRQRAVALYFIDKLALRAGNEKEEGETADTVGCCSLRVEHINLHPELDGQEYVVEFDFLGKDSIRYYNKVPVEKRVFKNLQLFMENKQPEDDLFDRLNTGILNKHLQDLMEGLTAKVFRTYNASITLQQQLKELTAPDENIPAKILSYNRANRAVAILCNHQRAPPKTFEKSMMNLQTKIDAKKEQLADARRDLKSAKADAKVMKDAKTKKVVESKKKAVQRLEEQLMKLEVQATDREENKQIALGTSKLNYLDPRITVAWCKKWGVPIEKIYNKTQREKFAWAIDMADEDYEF

CCRF/VBL = assay: cytotoxicity in multiple drug-resistant and cisplatin-resistant cells; type: cell-based
PC9 xenograft = PC9 xenograft in nude mice; type: in vivo; details: i.v., BO-1978 40 mg/kg, gefitinib 10 mg/kg, daily for 5 consecutive days
H1975 cells = assay: cells; type: cell-based, human; details: Homo sapiens, NCI-H1975, 72 h
H1299 cells = assay: cells; type: cell-based, human; details: Homo sapiens, NCI-H1299, 72 h
NTUB1/P = assay: cytotoxicity in multiple drug-resistant and cisplatin-resistant cells; type: cell-based
H460 cells [3] = assay: modified comet assay of DNA ICLs; type: cell-based, human; details: 1, 5, and 10 μM, 2 hours
caspases 3 and 7 = assay: Western blot of apoptotic executor proteins; type: cell-based, human; details: H460 cells
[4] = acute toxicity LD50 in ICR mice; details: male, mouse, in vivo
H1650 xenograft = H1650 xenograft in nude mice; type: in vivo; details: i.v., BO-1978 40 mg/kg, gefitinib 10 mg/kg, daily for 5 consecutive days
KB = assay: cytotoxicity in multiple drug-resistant and cisplatin-resistant cells; type: cell-based; details: Homo sapiens
PC9/gef B4 cells = assay: cells; type: cell-based, human
H460 xenograft = H460 xenograft in nude mice; type: in vivo
H1975 xenograft = H1975 xenograft in nude mice; type: in vivo; details: i.v., BO-1978 40 mg/kg, gefitinib 10 mg/kg, daily for 5 consecutive days
CL141T cells = assay: cells; type: cell-based, human; details: Homo sapiens, 72 h
CCRF-CEM = assay: cytotoxicity in multiple drug-resistant and cisplatin-resistant cells; type: cell-based; details: Homo sapiens
stability in rat plasma = type: in vitro ADME
MES-SA = assay: cytotoxicity in multiple drug-resistant and cisplatin-resistant cells; type: cell-based; details: Homo sapiens
PC9/gef B4 xenograft = PC9/gef B4 xenograft in nude mice; type: in vivo; details: i.v., BO-1978 40 mg/kg, gefitinib 10 mg/kg, daily for 5 consecutive days
NTUB1 = assay: cytotoxicity in multiple drug-resistant and cisplatin-resistant cells; type: cell-based
[5] = stability in culture medium; type: physicochemical
KB/vin10 = assay: cytotoxicity in multiple drug-resistant and cisplatin-resistant cells; type: cell-based
MES-SA/dx5 = assay: as above; type: cell-based
topo II = topo II activity assay with nuclear extracts of treated H460 cells; type: cell-based, human; details: H460 cells treated 72 hours, nuclear extract, plasmid relaxation
[6] = histopathological examination of major organs in ICR mice; type: in vivo; details: 40 mg/kg i.v., days 2 and 14, histopathology and blood tests
A549 cells = assay: cells; type: cell-based, human; details: Homo sapiens, A549, 72 h
γH2AX, DNA-PK, and Rad51 = assay: Western blot of DNA damage response; type: cell-based, human; details: H460 cells, 1 to 4 μM, 24 hours
[7] = whole-blood pharmacokinetics in SD rats; type: in vivo
H460 cells [8] = assay: cells; type: cell-based, human; details: Homo sapiens, NCI-H460, 72 h
H460 cells [9] = assay: cell cycle analysis by flow cytometry; type: cell-based, human; details: 1 to 4 μM, 24 to 72 hours
CL97 cells = assay: cells; type: cell-based, human; details: Homo sapiens, CL97, 72 h
CL100 cells = assay: cells; type: cell-based, human; details: Homo sapiens, 72 h
CL1-5 cells = assay: alamarBlue in vitro cytotoxicity assay; type: cell-based, human; details: Homo sapiens, CL1-5, 72 h
[10] = male, SD, rat, whole blood, iv, 10 mg/kg

Compound: CCc1c(CO)c(CO)c2n1Cc1c(c3ccccc3n1C)C2 [BO-1978, [3-ethyl-6-methyl-6,11-dihydro-5H-indolizino[6,7-b]indole-1,2-diyl]dimethanol]
- IC50 (H1650 cells): 3500 ± 100 nM
- orthotopic growth of H1650-Luc cells (H1650-Luc cells): effectively suppressed
- IC50 (PC9 cells): 1410 ± 370 nM
- formation of DNA ICLs in plasmid DNA (pEGFP-N1 plasmid DNA): formed DNA ICLs
- ALP ([1]; 14 Days): 233.50 ± 36.74 U/l
- ALT ([1]; 14 Days): 44.87 ± 19.72 U/l
- AST ([1]; 14 Days): 86.14 ± 25.25 U/l
- BASO ([1]; 14 Days): 0.09 ± 0.03 10^9/l
- BUN ([1]; 14 Days): 23.95 ± 1.71 mg/dL
- CRE ([1]; 14 Days): 0.17 ± 0.05 mg/dL
- EOS ([1]; 14 Days): 0.12 ± 0.13 10^9/l
- HCT ([1]; 14 Days): 44.02 ± 1.18%
- HGB ([1]; 14 Days): 12.78 ± 0.42 g/dL
- LYM ([1]; 14 Days): 2.86 ± 0.88 10^9/l
- MCH ([1]; 14 Days): 16.38 ± 0.52 pg
- MCHC ([1]; 14 Days): 29.05 ± 0.46 g/dL
- MCV ([1]; 14 Days): 56.40 ± 1.69 fL
- MONO ([1]; 14 Days): 0.11 ± 0.09 10^9/l
- NEU ([1]; 14 Days): 0.82 ± 0.47 10^9/l
- PLT ([1]; 14 Days): 958.00 ± 178.31 10^9/l
- RBC ([1]; 14 Days): 7.81 ± 0.33 10^12/l
- WBC ([1]; 14 Days): 4.00 ± 0.97 10^9/l
- ALP ([1]; 48 Hours): 297.50 ± 72.11 U/l
- ALT ([1]; 48 Hours): 156.25 ± 236.88 U/l
- AST ([1]; 48 Hours): 220.27 ± 153.45 U/l
- BASO ([1]; 48 Hours): 0.06 ± 0.03 10^9/l
- BUN ([1]; 48 Hours): 19.48 ± 2.03 mg/dL
- CRE ([1]; 48 Hours): 0.18 ± 0.15 mg/dL
- EOS ([1]; 48 Hours): 0.05 ± 0.04 10^9/l
- HCT ([1]; 48 Hours): 41.13 ± 1.95%
- HGB ([1]; 48 Hours): 11.96 ± 0.53 g/dL
- LYM ([1]; 48 Hours): 1.83 ± 1.17 10^9/l
- MCH ([1]; 48 Hours): 16.75 ± 0.45 pg
- MCHC ([1]; 48 Hours): 29.07 ± 0.40 g/dL
- MCV ([1]; 48 Hours): 57.61 ± 1.27 fL
- MONO ([1]; 48 Hours): 0.05 ± 0.04 10^9/l
- NEU ([1]; 48 Hours): 0.45 ± 0.21 10^9/l
- PLT ([1]; 48 Hours): 786.10 ± 90.60 10^9/l
- RBC ([1]; 48 Hours): 7.14 ± 0.38 10^12/l
- WBC ([1]; 48 Hours): 2.43 ± 1.19 10^9/l
- concentration in Blood [2]: 1.59 ± 0.48 μg/ml or μg/g
- concentration in Brain [2]: 3.97 ± 0.96 μg/ml or μg/g
- concentration in Heart [2]: 1.79 ± 0.72 μg/ml or μg/g
- concentration in Kidney [2]: 2.19 ± 0.12 μg/ml or μg/g
- concentration in Liver [2]: 10.71 ± 1.96 μg/ml or μg/g
- concentration in Lung [2]: 3.13 ± 1.44 μg/ml or μg/g
- concentration in Spleen [2]: 0.48 ± 0.08 μg/ml or μg/g
- IC50 (11 NSCLC cell lines): 1060 to 3500 nM
- concentration at which topo I activity was significantly inhibited (topo I): greater than 0.5 μM
- IC50 (CCRF/VBL): 410 ± 30 nM
- suppression of xenograft tumor growth (PC9 xenograft): 55%
- IC50 (H1975 cells): 2340 ± 180 nM
- IC50 (H1299 cells): 3020 ± 650 nM
- IC50 (NTUB1/P; NTUB1): 1920 ± 390 nM
- resistance factor (NTUB1/P; NTUB1/P vs NTUB1): 1.68 x
- tail moment in X-ray irradiated H460 cells (DNA ICLs) (H460 cells [3]): dose-dependently induced shortened tail moments
- cleavage of caspases 3 and 7 (caspases 3 and 7): dose- and time-dependently induced cleavage of caspases 3 and 7
- LD50 [4]: 93.7 mg/kg
- suppression of xenograft tumor growth (H1650 xenograft): 30%
- IC50 (KB): 1960 ± 390 nM
- IC50 (PC9/gef B4 cells; Homo sapiens, 72 h): 1580 ± 330 nM
- resistance factor of PC9/gef B4 to PC9 cells (PC9/gef B4 cells; IC50 ratio, number in brackets): 1.12
- body weight loss (H460 xenograft; H460 xenograft mice, BO-1978 40 mg/kg QDx5, cisplatin 6 mg/kg every 4 days x3): negligible
- H460 xenograft tumor size suppressed/reduced to (H460 xenograft; i.v., BO-1978 40 mg/kg QDx5, cisplatin 6 mg/kg every 4 days x3): approximately 65%
- maximal tolerant dose (H460 xenograft; nude mice, i.v., given for 5 consecutive days (QDx5)): 40 mg/kg
- suppression of xenograft tumor growth (H1975 xenograft): 26%
- IC50 (CL141T cells): 1320 ± 470 nM
- IC50 (CCRF-CEM): 460 ± 120 nM
- half-life (stability in rat plasma): 89.4 ± 5.62 h
- IC50 (MES-SA): 770 ± 80 nM
- suppression of xenograft tumor growth (PC9/gef B4 xenograft): 73%
- IC50 (NTUB1): 1140 ± 320 nM
- half-life [5]: 36.8 ± 2.19 h
- IC50 (KB/vin10; Homo sapiens, KB-VIN10): 1560 ± 510 nM
- resistance factor (KB/vin10; KB/vin10 vs KB): 0.79 x
- IC50 (MES-SA/dx5; Homo sapiens, MES-SA/Dx5): 470 ± 120 nM
- resistance factor (MES-SA/dx5; MES-SA/dx5 vs MES-SA): 0.61 x
- concentration at which topo II activity was significantly inhibited (topo II): greater than 0.5 μM
- toxic effects in the major organs [6]: did not cause apparent toxic effects in the major organs except for slight and recoverable liver damage
- IC50 (A549 cells): 3150 ± 1200 nM
- expression of γH2AX, DNA-PK, and Rad51 (γH2AX, DNA-PK, and Rad51): dose-dependently increased the expression levels
- systemic clearance as share of cardiac output of rats ([7]; cardiac output approximately 296 ml/min per kg): approximately 19%
- systemic clearance ([7]; male SD rats, single i.v. 10 mg/kg): 56.24 ± 14.90 ml/min per kg
- AUC(0-t) [7, 10]: 3140 ng·h/mL
- C0 [7, 10]: 8630 ng/mL and 27.8 µM
- MRT [7, 10]: 0.456 h
- half-life [7, 10]: 0.392 ± 0.118 h
- IC50 (H460 cells [8]): 1060 ± 110 nM
- cell cycle interference (H460 cells [9]): S phase delay at 24 hours and then G2 arrest at 72 hours
- IC50 (CL97 cells): 1250 ± 180 nM
- IC50 (CL100 cells): 1510 ± 300 nM
- IC50 (CL1-5 cells): 1470 ± 530 nM
